From patent publication US10808017B2, “Ubiquitin variants and uses therof as 53BP1 inhibitors” (The Governing Council of the University of Toronto, priority 2016, dated 2020)

Columns and labels:
[1] = test system: gene targeting at the LMNA locus in U2OS cells; assay: LMNA mClover gene targeting assay (CRISPR/Cas9); format: cell-based; settings: parental U2OS cells; NU7441 at 10 μM
Protocol: (§1) FIG. 4. Activation of HR by i53. FIG. 4A, Schematic of the DR-GFP assay. FIG. 4B. U2OS DR-GFP cells were transfected with the vectors expressing i53, the DM mutant or an empty vector control (EV) along with an I-Scel expression vector. The percentage of GFP-positive cells was determined 48 h post-transfection for each condition and was normalized to the empty vector condition (mean±s.d., N=4). FIG. 4C, U2OS DR-GFP were first transfected with siRNAs targeting the 53BP1 or BRCA1 mRNAs along with a non-targeting siRNA (CTRL). 24 h post-transfection, cells were transfected with the I-SceI expression vector and the percentage of GFP-positive cells was determined 48 h post-siRNA transfection for each condition. The values were normalized to the empty vector condition and presented as the mean±s.e.m; N=4. FIG. 4D, Schematic of the gene targeting assay. FIG. 4E, Gene targeting efficiency at the LMNA locus in parental or 53BP1Δ U2OS cells following transfection with vectors expressing Flag-tagged i53 or its DM mutant or an empty vector control (EV). The DNA-PK inhibitor NU7441 was also added where indicated. 24 h post-transfection, cells were analysed for mClover fluorescence. Individual experiments are presented with the error bar representing the s.d., (N=3). FIG. 4F, Gene targeting at the LMNA locus in G 1-arrested parental (WT) or 53BP1Δ U2OS cells transfected with vectors expressing Flag-tagged i53 or its DM mutant or an empty vector control (EV). The DNA-PK inhibitor NU7441 was also added in the indicated conditions. 24 h post-transfection, cells were analysed for mClover fluorescence. Individual experiments are present with the error bar representing the s.d., (N=3).
The Lamin A (LMNA) assay to measure the frequency of introduction of the coding sequence for mClover at the 5′ end of LMNA using the CRISPR/Cas9 was performed as previously described4. Parental or 53BP1Δ U2OS cell lines were transfected with the indicated plasmids using Lipofectamine RNAiMAX (Invitrogen). 24 h later, the cells were electroporated with 2.5 μg of sgRNA plasmids and 2.5 μg of donor template using a Nucleofector (Lonza; protocol X-001). Parental or 53BP1Δ U2OS cells stably expressing CtIP-T847E mutant were transfected with an siRNA against KEAP1 and the indicated plasmids and processed as previously described.

[2] = test system: gene conversion (HR) in U2OS DR-GFP cells; assay: Direct-repeat (DR)-GFP gene conversion assay; format: cell-based, human; settings: SCR7 at 1 μM; i53 by plasmid expression
Protocol: as §1
The direct repeat (DR)-GFP assay to measure the frequency of HR and the strand annealing EJ2-GFP assay to measure the frequency of MMEJ were performed as previously described. Briefly, U2OS DR-GFP or U2OS EJ2-GFP cells were transfected with 10 nM siRNA (Dharmacon) using Lipofectamine RNAiMAX (Invitrogen). 24 h later, the cells were transfected with the pCBASceI plasmid (Addgene #26477) and plasmids, using Lipofectamine 2000 (Invitrogen). 48 h post-plasmid transfection, the cells were trypsinized and the percentage of GFP-expressing cells was analyzed using the BD FACSCalibur flow cytometer.
AAV-293 cells (Agilent) were transfected with pAAV expression, pDJ and pHelper constructs (Cell Biolabs, Inc., USA) in equal amounts using PEI to produce AAV-DJ expression viruses. 48-72 h later, the viral supernatant was used to transduce target cells for 24 h, and assays were initiated a further 24 h later.

[3] = test system: gene targeting at the LMNA locus in U2OS cells; settings: reference [21]; cited from earlier work

Compound | Change of gene targeting at the LMNA locus (in words) [1] | Gene conversion in DR-GFP assay (comparison in words) [2] | Response of gene targeting at the LMNA locus to treatment [3]
O=c1cc(N2CCOCC2)oc2c(-c3cccc4c3sc3ccccc34)cccc12 [NU7441, 8-dibenzothiophen-4-yl-2-morpholin-4-yl-chromen-4-one, reference compound] | modest increase in gene targeting | – | –
c1cnccn1 [SCR7 pyrazine, reference compound] | – | minimal impact | –
O=c1[nH]c(=S)[nH]c(N=Cc2ccccc2)c1N=Cc1ccccc1 [SCR7, reference compound] | – | minimal impact | not responsive
